Experimental data published in patent publication US6818203B2, “Use of perfluoroalkyl-containing metal complexes as contrast media in MR-imaging for visualization of plaque, tumors and necroses” (Schering Aktiengesellschaft, priority 2000, dated 2004).
Several values for one entry are separate records, joined by “and”; a condition that tells them apart may be missing. Equal values may be shown once.

How the values were obtained:
[1] = hydrodynamic micelle diameter (2 Rh) by photon correlation spectroscopy (PCS); type: physicochemical
Description: The amphiphilic compounds according to the invention are combined in solution and are present as aggregates. The size (2 Rh) of such aggregates (e.g., micelles, rods, wafers, etc.) can be determined with the aid of […] (PCS).
As a second criterion, the hydrodynamic micelle diameter 2 Rh, which must be >1 nm, is therefore used. Those perfluoroalkyl-containing metal complexes according to the invention whose 2 RH is ≧3, quite especially preferably >4 nm, are especially suitable.
(§1) Both the determination of the CMC and the photon correlation spectroscopy are described in H.-D. Dörfler, “Grenzflächen- und Kolloidchemie [Interface and Colloid Chemistry],” Weinheim, New York, Basel, Cambridge, Tokyo, VSH 1994.

[2] = proton relaxivity in plasma (R^1), Minispec P 20; type: physicochemical; conditions: 40° C., 0.47 tesla, bovine plasma
Experimental: As a third criterion, the proton-relaxivity in plasma (R^1) at 40° C. and a field strength of 0.47 tesla is used. The relaxivity, which is indicated in [l/mmol·s], is the quantitative measurement for the shortening of relaxation time T^1 of the protons. For the purpose according to the invention, the relaxivity must be as high as possible and >10 l/mmol·s, preferably >13 l/mmol·s, especially preferably >15 l/mmol·s.
Relaxivity R^1 [l/mmol·s] of the MR-contrast media according to the invention was determined with the Minispec P 20 device of the Bruker Company. The measurements were taken at 40° C. and a field strength of 0.47 tesla. Eight measuring points were recorded by each T1-sequence: 180°-TI-90°, inversion recovery. As a medium, bovine plasma of the Kraeber Company was used. The contrast medium concentrations [mmol/l] in the batches were between 0.30 and 1.16.

[3] = critical micelle formation concentration (CMC) by tensiometry; type: physicochemical
Experimental: In aqueous systems, these amphiphilic molecules show the properties that are characteristic of standard surfactants (such as, e.g., sodium dodecylsulfate, SDS). They thus reduce the surface tension of water. By tensiometry, the so-called CMC (critical micelle formation concentration in mol/l) can be determined. In this respect, the surface tension is determined based on the concentration of the substance to be measured. The CMC can be calculated from the plot of the surface tension function (c) that is obtained. The critical micelle formation concentration of the compounds according to the invention must be <10^−3 mol/l, preferably <10^−4 mol/l.
as §1

infarcted tissue = conditions: cited from earlier work
iliac lymph nodes = assay: lymph node visualization (MRT) after intravenous administration in VX2-tumor-bearing rabbits; type: in vivo; conditions: 100 μmol of Gd/kg i.v.; 60 minutes and 20 hours
Experimental: The pictures of FIG. 6 show MR images of an iliac lymph node and of a primary tumor (VX2-tumor implanted i.m.) precontrast, 60 minutes and 20 hours after intravenous administration of 100 μmol of Gd/kg of body weight of metal complex I in rabbits. […] The enhancement in the healthy lymph node tissue was 382% at the time of 15 minutes p.i. and 419% at the time of 60 minutes p.i. […] The ratio of signal intensities of healthy lymph node tissue to metastasis was 3.0 at the time of 15 minutes p.i. and 3.4 at the time of 60 minutes p.i. […] The enhancement in the healthy lymph node tissue was 246% at the time of 15 minutes p.i. and 282% at the time of 60 minutes p.i. […] The ratio of signal intensities of healthy lymph node tissue to metastasis was 2.5 at the time of 15 minutes p.i. and 1.7 at the time of 60 minutes p.i. […] The enhancement in the healthy lymph node tissue was 297% at the time of 10 minutes p.i. and 269% at the time of 60 minutes p.i. […] The ratio of signal intensities of healthy lymph node tissue to metastasis was 5.1 at the time of 10 minutes p.i. and 1.9 at the time of 60 minutes p.i. […] The enhancement in the healthy lymph node tissue was 195% at the time of 15 minutes p.i. and 233% at the time of 60 minutes p.i. […] The ratio of signal intensities of healthy lymph node tissue to metastasis was 1.9 at the time of 15 minutes p.i. and 1.8 at the time of 60 minutes p.i.

myocardial infarction = assay: infarction visualization (MRT) after intravenous administration in rats with acutely induced myocardial infarction; type: in vivo; conditions: 24 hours after i.v. 100 μmol of Gd/kg
Description: The successful induction of an acute myocardial infarction was confirmed by means of NBT-staining.

[4] = test system: primary tumor (VX2-tumor implanted i.m.); assay: tumor visualization (MRT) after intravenous administration in VX2-tumor-bearing rabbits; type: in vivo; conditions: 100 μmol of Gd/kg i.v.
Experimental: The pictures of FIG. 6 show MR images of an iliac lymph node and of a primary tumor (VX2-tumor implanted i.m.) precontrast, 60 minutes and 20 hours after intravenous administration of 100 μmol of Gd/kg of body weight of metal complex I in rabbits. […]

## CCN(CC(=O)NCC(O)CN1CCN(CC(=O)[O-])CCN(CC(=O)[O-])CCN(CC(=O)[O-])CC1)S(=O)(=O)C(F)(F)C(F)(F)C(F)(F)C(F)(F)C(F)(F)C(F)(F)C(F)(F)C(F)(F)F.[Gd+3] (centres unmarked) [metal complex IV, Gadolinium complex of 10-[2-hydroxy-4-aza-5-oxo-7-aza-7-(perfluorooctyl-sulfonyl)-nonyl]-1,4,7-tris (carboxymethyl)-1,4,7,10-tetraazacyclododecane]
[1]
  2 Rh (hydrodynamic micelle diameter): 31.5 nm
[2]
  R^1 Plasma (relaxivity): 29.7 mmol⁻¹ s⁻¹
[3]
  CMC (critical micelle formation concentration): 1e-06 mol/L

## CC(C(=O)NCC(=O)NCCOCCOCCOCCCNC(=O)COCCC(F)(F)C(F)(F)C(F)(F)C(F)(F)C(F)(F)C(F)(F)C(F)(F)C(F)(F)F)N1CCN(CC(=O)[O-])CCN(CC(=O)[O-])CCN(CC(=O)[O-])CC1.[Gd+3] (centres unmarked) [metal complex IX]
[1]
  2 Rh (hydrodynamic micelle diameter): 6.0 nm
[2]
  R^1 Plasma (relaxivity): 13.3 mmol⁻¹ s⁻¹
[3]
  CMC (critical micelle formation concentration): 2.65e-06 mol/L

## CCN(CCCCCC(=O)NCC(O)CN1CCN(CC(=O)[O-])CCN(CC(=O)[O-])CCN(CC(=O)[O-])CC1)S(=O)(=O)C(F)(F)C(F)(F)C(F)(F)C(F)(F)C(F)(F)C(F)(F)C(F)(F)C(F)(F)F.[Gd+3] (centres unmarked) [metal complex XII, Gadolinium complex of 10-[2-hydroxy-4-aza-5-oxo-11-aza-11-(perfluorooctyl-sulfonyl)-tridecyl]-1,4,7-tris(carboxymethyl) 1,4,7,10-tetraazacyclododecane]
[1]
  2 Rh (hydrodynamic micelle diameter): 7.4 nm
[2]
  R^1 Plasma (relaxivity): 30.5 mmol⁻¹ s⁻¹
[3]
  CMC (critical micelle formation concentration): 1.07e-05 mol/L

## O=C([O-])CN1CCN(CC(=O)[O-])CCN(CC(O)COCCC(F)(F)C(F)(F)C(F)(F)C(F)(F)C(F)(F)C(F)(F)C(F)(F)C(F)(F)F)CCN(CC(=O)[O-])CC1.[Gd+3] (centres unmarked) [metal complex VI, Gadolinium complex of 10-[2-hydroxy-4-oxa-1H,1H,2H,2H,3H,3H,5H,5H,6H,6H-perfluorotetradecyl]-1,4,7-tris(carboxymethyl)-1,4,7,10-tetraazacyclododecane]
[1]
  2 Rh (hydrodynamic micelle diameter): 3.2 nm
[2]
  R^1 Plasma (relaxivity): 27.5 mmol⁻¹ s⁻¹
[3]
  CMC (critical micelle formation concentration): 1.44e-05 mol/L

## gadolinium-mesoporphyrin [Gd-MP]
Infarcted tissue; infarcted kidney and myocardium (both cases)
  ratio of the signal intensities during MRI for infarcted tissue in comparison to healthy tissue: 2.10 and 2.19
Infarcted tissue; kidney (Example 3 of WO 95/31219)
  metal content of the infarcted organ compared with non-infarcted: as high as that of the non-infarcted organ
Infarcted tissue; myocardium (Example 1 of WO 95/31219)
  metal content in the infarcted tissue compared with non-infarcted: nine times as high

## COCCOCCOCCOCCOCCN(CCOCCC(F)(F)C(F)(F)C(F)(F)C(F)(F)C(F)(F)C(F)(F)C(F)(F)C(F)(F)F)C(=O)CNC(=O)C(C)N1CCN(CC(=O)[O-])CCN(CC(=O)[O-])CCN(CC(=O)[O-])CC1.[Gd+3] (centres unmarked) [metal complex VII]
[1]
  2 Rh (hydrodynamic micelle diameter): 3.0 nm
[2]
  R^1 Plasma (relaxivity): 30.3 mmol⁻¹ s⁻¹
[3]
  CMC (critical micelle formation concentration): 5.2e-05 mol/L

## CC(C(=O)NCC(=O)N1CCN(S(=O)(=O)C(F)(F)C(F)(F)C(F)(F)C(F)(F)C(F)(F)C(F)(F)C(F)(F)C(F)(F)F)CC1)N1CCN(CC(=O)[O-])CCN(CC(=O)[O-])CCN(CC(=O)[O-])CC1.[Gd+3] (centres unmarked) [metal complex I, Gadolinium complex of 10-[1-methyl-2-oxo-3-aza-5-oxo-{4-perfluorooctyl-sulfonyl-piperazin-1-yl}-pentyl]-1,4,7-tris(carboxymethyl)-1,4,7,10-tetraazacyclododecane]
Iliac lymph nodes
  signal in healthy lymph node tissue (T1-weighted gradient-echo images): strong signal rise
Myocardial infarction
  signal in the infarction area (T1-weighted spin-echo images): strong signal rise
[4]; 60 minutes p.i.
  enhancement of the primary tumor (especially the periphery): considerable enhancement
[4]; 20 hours p.i.
  course of the signal rise of the primary tumor: propagated in the more central region of the tumor
[4]; late images
  enhancement of a pathological structure (optionally secondary tumor or necrosis) on the contralateral side: late enhancement
[1]
  2 Rh (hydrodynamic micelle diameter): 4.6 nm
[2]
  R^1 Plasma (relaxivity): 35.7 mmol⁻¹ s⁻¹
[3]
  CMC (critical micelle formation concentration): 1.86e-06 mol/L

## O=C([O-])CN1CCN(CC(=O)[O-])CCN(CC(O)CNC(=O)COCCC(F)(F)C(F)(F)C(F)(F)C(F)(F)C(F)(F)C(F)(F)C(F)(F)C(F)(F)C(F)(F)C(F)(F)F)CCN(CC(=O)[O-])CC1.[Gd+3] (centres unmarked) [metal complex XI, Gadolinium complex of 10-[2-hydroxy-4-aza-5-oxo-7-oxa-10,10,11,11,12,12,13,13,14,14,15,15,16,16,17,17,18,18,19,19-henicosafluoro-nonadecyl]-1,4,7-tris(carboxymethyl)-1,4,7,10-tetraazacyclododecane]
[1]
  2 Rh (hydrodynamic micelle diameter): 35.5 nm
[2]
  R^1 Plasma (relaxivity): 24.8 mmol⁻¹ s⁻¹
[3]
  CMC (critical micelle formation concentration): 2.88e-06 mol/L

## O=C([O-])CN1CCN(CC(=O)[O-])CCN(CC(O)CNC(=O)COCCC(F)(F)C(F)(F)C(F)(F)C(F)(F)C(F)(F)C(F)(F)C(F)(F)C(F)(F)F)CCN(CC(=O)[O-])CC1.[Gd+3] (centres unmarked) [metal complex II, Gadolinium complex of 10-[2-hydroxy-4-aza-5-oxo-7-oxa-10,10,11,11,12,12,13,13,14,14,15,15,16,16,17,17-heptadecafluoroheptadecyl]-1,4,7-tris (carboxymethyl)-1,4,7,10-tetraazacyclododecane]
[1]
  2 Rh (hydrodynamic micelle diameter): 14 nm
[2]
  R^1 Plasma (relaxivity): 33 mmol⁻¹ s⁻¹
[3]
  CMC (critical micelle formation concentration): 2.3e-05 mol/L

## CC(C(=O)NCC(=O)N(CCOCCO)CCOCCC(F)(F)C(F)(F)C(F)(F)C(F)(F)C(F)(F)C(F)(F)C(F)(F)C(F)(F)F)N1CCN(CC(=O)[O-])CCN(CC(=O)[O-])CCN(CC(=O)[O-])CC1.[Gd+3] (centres unmarked) [metal complex VIII]
[1]
  2 Rh (hydrodynamic micelle diameter): 25 nm
[2]
  R^1 Plasma (relaxivity): 21.2 mmol⁻¹ s⁻¹
[3]
  CMC (critical micelle formation concentration): 2.92e-05 mol/L

## CC(C(=O)NCC(=O)NCCCC[C@H](NC(=O)CNC(=O)C(C)N1CCN(CC(=O)[O-])CCN(CC(=O)[O-])CCN(CC(=O)[O-])CC1)C(=O)N1CCN(S(=O)(=O)C(F)(F)C(F)(F)C(F)(F)C(F)(F)C(F)(F)C(F)(F)C(F)(F)C(F)(F)F)CC1)N1CCN(CC(=O)[O-])CCN(CC(=O)[O-])CCN(CC(=O)[O-])CC1.[Gd+3].[Gd+3] (some centres unmarked) [metal complex XVI]
[1]
  2 Rh (hydrodynamic micelle diameter): 4.9 nm
[2]
  R^1 Plasma (relaxivity): 21.3 mmol⁻¹ s⁻¹
[3]
  CMC (critical micelle formation concentration): 3.9e-05 mol/L

## O=C([O-])CN1CCN(CC(=O)[O-])CCN(CC(O)CNC(=O)CN(Cc2ccccc2)S(=O)(=O)C(F)(F)C(F)(F)C(F)(F)C(F)(F)C(F)(F)C(F)(F)C(F)(F)C(F)(F)F)CCN(CC(=O)[O-])CC1.[Gd+3] (centres unmarked) [metal complex XIII, Gadolinium complex of 10-[2-hydroxy-4-aza-5-oxo-7-aza-7-(perfluorooctyl-sulfonyl)-8-phenyl-octyl]-1-4-7-tris(carboxymethyl)-1,4,7,10-tetraazacyclododecane]
[1]
  2 Rh (hydrodynamic micelle diameter): 4.3 nm
[2]
  R^1 Plasma (relaxivity): 34.0 mmol⁻¹ s⁻¹
[3]
  CMC (critical micelle formation concentration): 3.25e-06 mol/L
